Measured values: PMC10482267, “Safety, tolerability, pharmacokinetics, and pharmacodynamics of single and multiple doses of aficamten in healthy Chinese participants: a randomized, double-blind, placebo-controlled, phase 1 study” (Frontiers in Pharmacology, 2023)

Test system: healthy Chinese participants
Assay: Safety assessments (treatment-emergent adverse events)
Assay type: in vivo, human
Conditions: for safety and tolerability, in words: single dose of 10 mg or 20 mg and multiple doses of 5 mg, oral
Protocol: Safety was evaluated based on the occurrence, frequency, and severity of adverse events (AEs). Routine clinical laboratory tests, 12‐lead ECGs, physical examinations, and vital signs (blood pressure, pulse rate, and body temperature) were performed at initial screening, day 1, during the treatment period until discharge or early termination. The AEs were monitored from the initial administration to the last follow-up after the last treatment. The AEs were assessed by the investigators with regard to severity (mild, moderate, severe, and life‐threatening) and the relationship to study treatment (reasonably or possibly related and not reasonably or not possibly related).

CCc1nc(-c2ccc3c(c2)CC[C@H]3NC(=O)c2cnn(C)c2)no1 [aficamten]
TEAE Alanine aminotransferase increased, Number (%) of Subjects (MD 5 mg (N = 9)): 0 Number (%) | TEAE Blood bilirubin increased, Number (%) of Subjects (MD 5 mg (N = 9)): 0 Number (%) | TEAE Blood creatine phosphokinase increased, Events (MD 5 mg (N = 9)): 1 | TEAE Blood creatine phosphokinase increased, Number (%) of Subjects (MD 5 mg (N = 9)): 1(11.1) Number (%) | TEAE Blood creatinine increased, Events (MD 5 mg (N = 9)): 1 | TEAE Blood creatinine increased, Number (%) of Subjects (MD 5 mg (N = 9)): 1(11.1) Number (%) | TEAE Blood sodium decreased, Events (MD 5 mg (N = 9)): 1 | TEAE Blood sodium decreased, Number (%) of Subjects (MD 5 mg (N = 9)): 1(11.1) Number (%) | TEAE Cardiac disorders (SOC), Number (%) of Subjects (MD 5 mg (N = 9)): 0 Number (%) | TEAE Chest discomfort, Number (%) of Subjects (MD 5 mg (N = 9)): 0 Number (%) | TEAE Conjugated bilirubin increased, Events (MD 5 mg (N = 9)): 2 | TEAE Conjugated bilirubin increased, Number (%) of Subjects (MD 5 mg (N = 9)): 2(22.2) Number (%) | TEAE Gamma-glutamyltransferase increased, Number (%) of Subjects (MD 5 mg (N = 9)): 0 Number (%) | TEAE Gastrointestinal disorders (SOC), Number (%) of Subjects (MD 5 mg (N = 9)): 0 Number (%) | TEAE General disorders and administration site conditions (SOC), Number (%) of Subjects (MD 5 mg (N = 9)): 0 Number (%) | TEAE Heart rate decreased, Number (%) of Subjects (MD 5 mg (N = 9)): 0 Number (%) | TEAE Investigations (SOC), Events (MD 5 mg (N = 9)): 13 | TEAE Investigations (SOC), Number (%) of Subjects (MD 5 mg (N = 9)): 6(66.7) Number (%) | TEAE Nausea, Number (%) of Subjects (MD 5 mg (N = 9)): 0 Number (%) | TEAE Neutrophil count decreased, Events (MD 5 mg (N = 9)): 2 | TEAE Neutrophil count decreased, Number (%) of Subjects (MD 5 mg (N = 9)): 1(11.1) Number (%) | TEAE Neutrophil count increased (first line, r9), Events (MD 5 mg (N = 9)): 1 | TEAE Neutrophil count increased (first line, r9), Number (%) of Subjects (MD 5 mg (N = 9)): 1(11.1) Number (%) | TEAE Neutrophil count increased (second line, r18), Events (MD 5 mg (N = 9)): 1 | TEAE Neutrophil count increased (second line, r18), Number (%) of Subjects (MD 5 mg (N = 9)): 1(11.1) Number (%) | TEAE Rash, Events (MD 5 mg (N = 9)): 1 | TEAE Rash, Number (%) of Subjects (MD 5 mg (N = 9)): 1(11.1) Number (%) | TEAE Skin and subcutaneous tissue disorders (SOC), Events (MD 5 mg (N = 9)): 1 | TEAE Skin and subcutaneous tissue disorders (SOC), Number (%) of Subjects (MD 5 mg (N = 9)): 1(11.1) Number (%) | TEAE Systolic blood pressure decreased, Events (MD 5 mg (N = 9)): 3 | TEAE Systolic blood pressure decreased, Number (%) of Subjects (MD 5 mg (N = 9)): 2(22.2) Number (%) | TEAE Ventricular hypokinesia, Number (%) of Subjects (MD 5 mg (N = 9)): 0 Number (%) | TEAE White blood cell count decreased, Number (%) of Subjects (MD 5 mg (N = 9)): 0 Number (%) | TEAE White blood cell count increased, Events (MD 5 mg (N = 9)): 1 | TEAE White blood cell count increased, Number (%) of Subjects (MD 5 mg (N = 9)): 1(11.1) Number (%) | TEAEs, Events (MD 5 mg (N = 9)): 14 | TEAEs, Number (%) of Subjects (MD 5 mg (N = 9)): 6(66.7) Number (%) | TEAE Alanine aminotransferase increased, Number (%) of Subjects (SAD 10 mg (N = 6)): 0 Number (%) | TEAE Blood bilirubin increased, Number (%) of Subjects (SAD 10 mg (N = 6)): 0 Number (%) | TEAE Blood creatine phosphokinase increased, Number (%) of Subjects (SAD 10 mg (N = 6)): 0 Number (%) | TEAE Blood creatinine increased, Number (%) of Subjects (SAD 10 mg (N = 6)): 0 Number (%) | TEAE Blood sodium decreased, Number (%) of Subjects (SAD 10 mg (N = 6)): 0 Number (%) | TEAE Cardiac disorders (SOC), Events (SAD 10 mg (N = 6)): 1 | TEAE Cardiac disorders (SOC), Number (%) of Subjects (SAD 10 mg (N = 6)): 1(16.7) Number (%) | TEAE Chest discomfort, Number (%) of Subjects (SAD 10 mg (N = 6)): 0 Number (%) | TEAE Conjugated bilirubin increased, Number (%) of Subjects (SAD 10 mg (N = 6)): 0 Number (%) | TEAE Gamma-glutamyltransferase increased, Number (%) of Subjects (SAD 10 mg (N = 6)): 0 Number (%) | TEAE Gastrointestinal disorders (SOC), Number (%) of Subjects (SAD 10 mg (N = 6)): 0 Number (%) | TEAE General disorders and administration site conditions (SOC), Number (%) of Subjects (SAD 10 mg (N = 6)): 0 Number (%) | TEAE Heart rate decreased, Number (%) of Subjects (SAD 10 mg (N = 6)): 0 Number (%) | TEAE Investigations (SOC), Events (SAD 10 mg (N = 6)): 2 | TEAE Investigations (SOC), Number (%) of Subjects (SAD 10 mg (N = 6)): 1(16.7) Number (%) | TEAE Nausea, Number (%) of Subjects (SAD 10 mg (N = 6)): 0 Number (%) | TEAE Neutrophil count decreased, Events (SAD 10 mg (N = 6)): 1 | TEAE Neutrophil count decreased, Number (%) of Subjects (SAD 10 mg (N = 6)): 1(16.7) Number (%) | TEAE Neutrophil count increased (first line, r9), Number (%) of Subjects (SAD 10 mg (N = 6)): 0 Number (%) | TEAE Neutrophil count increased (second line, r18), Number (%) of Subjects (SAD 10 mg (N = 6)): 0 Number (%) | TEAE Rash, Number (%) of Subjects (SAD 10 mg (N = 6)): 0 Number (%) | TEAE Skin and subcutaneous tissue disorders (SOC), Number (%) of Subjects (SAD 10 mg (N = 6)): 0 Number (%) | TEAE Systolic blood pressure decreased, Number (%) of Subjects (SAD 10 mg (N = 6)): 0 Number (%) | TEAE Ventricular hypokinesia, Events (SAD 10 mg (N = 6)): 1 | TEAE Ventricular hypokinesia, Number (%) of Subjects (SAD 10 mg (N = 6)): 1(16.7) Number (%) | TEAE White blood cell count decreased, Events (SAD 10 mg (N = 6)): 1 | TEAE White blood cell count decreased, Number (%) of Subjects (SAD 10 mg (N = 6)): 1(16.7) Number (%) | TEAE White blood cell count increased, Number (%) of Subjects (SAD 10 mg (N = 6)): 0 Number (%) | TEAEs, Events (SAD 10 mg (N = 6)): 3 | TEAEs, Number (%) of Subjects (SAD 10 mg (N = 6)): 1(16.7) Number (%) | TEAE Alanine aminotransferase increased, Number (%) of Subjects (SAD 20 mg (N = 6)): 0 Number (%) | TEAE Blood bilirubin increased, Events (SAD 20 mg (N = 6)): 1 | TEAE Blood bilirubin increased, Number (%) of Subjects (SAD 20 mg (N = 6)): 1(16.7) Number (%) | TEAE Blood creatine phosphokinase increased, Number (%) of Subjects (SAD 20 mg (N = 6)): 0 Number (%) | TEAE Blood creatinine increased, Number (%) of Subjects (SAD 20 mg (N = 6)): 0 Number (%) | TEAE Blood sodium decreased, Number (%) of Subjects (SAD 20 mg (N = 6)): 0 Number (%) | TEAE Cardiac disorders (SOC), Number (%) of Subjects (SAD 20 mg (N = 6)): 0 Number (%) | TEAE Chest discomfort, Events (SAD 20 mg (N = 6)): 2 | TEAE Chest discomfort, Number (%) of Subjects (SAD 20 mg (N = 6)): 1(16.7) Number (%) | TEAE Conjugated bilirubin increased, Events (SAD 20 mg (N = 6)): 2 | TEAE Conjugated bilirubin increased, Number (%) of Subjects (SAD 20 mg (N = 6)): 2(33.3) Number (%) | TEAE Gamma-glutamyltransferase increased, Number (%) of Subjects (SAD 20 mg (N = 6)): 0 Number (%) | TEAE Gastrointestinal disorders (SOC), Events (SAD 20 mg (N = 6)): 1 | TEAE Gastrointestinal disorders (SOC), Number (%) of Subjects (SAD 20 mg (N = 6)): 1(16.7) Number (%) | TEAE General disorders and administration site conditions (SOC), Events (SAD 20 mg (N = 6)): 2 | TEAE General disorders and administration site conditions (SOC), Number (%) of Subjects (SAD 20 mg (N = 6)): 1(16.7) Number (%) | TEAE Heart rate decreased, Events (SAD 20 mg (N = 6)): 2 | TEAE Heart rate decreased, Number (%) of Subjects (SAD 20 mg (N = 6)): 1(16.7) Number (%) | TEAE Investigations (SOC), Events (SAD 20 mg (N = 6)): 7 | TEAE Investigations (SOC), Number (%) of Subjects (SAD 20 mg (N = 6)): 4(66.7) Number (%) | TEAE Nausea, Events (SAD 20 mg (N = 6)): 1 | TEAE Nausea, Number (%) of Subjects (SAD 20 mg (N = 6)): 1(16.7) Number (%) | TEAE Neutrophil count decreased, Number (%) of Subjects (SAD 20 mg (N = 6)): 0 Number (%) | TEAE Neutrophil count increased (first line, r9), Number (%) of Subjects (SAD 20 mg (N = 6)): 0 Number (%) | TEAE Neutrophil count increased (second line, r18), Number (%) of Subjects (SAD 20 mg (N = 6)): 0 Number (%) | TEAE Rash, Number (%) of Subjects (SAD 20 mg (N = 6)): 0 Number (%) | TEAE Skin and subcutaneous tissue disorders (SOC), Number (%) of Subjects (SAD 20 mg (N = 6)): 0 Number (%) | TEAE Systolic blood pressure decreased, Events (SAD 20 mg (N = 6)): 2 | TEAE Systolic blood pressure decreased, Number (%) of Subjects (SAD 20 mg (N = 6)): 2(33.3) Number (%) | TEAE Ventricular hypokinesia, Number (%) of Subjects (SAD 20 mg (N = 6)): 0 Number (%) | TEAE White blood cell count decreased, Number (%) of Subjects (SAD 20 mg (N = 6)): 0 Number (%) | TEAE White blood cell count increased, Number (%) of Subjects (SAD 20 mg (N = 6)): 0 Number (%) | TEAEs, Events (SAD 20 mg (N = 6)): 10 | TEAEs, Number (%) of Subjects (SAD 20 mg (N = 6)): 4(66.7) Number (%) | deaths, SAEs, AESIs, discontinuations due to TEAEs, LVEF <50% (all cohorts): no deaths, serious adverse events (SAEs) | severity of TEAEs (all cohorts): mild | safety and tolerability, in words: well-tolerated | safety and tolerability, in words (listed as Aficamten): safe and well-tolerated
